Earlier results as cited in US5124083A, “3-substituted and 3,3-disubstituted 4-oxoretinoic acids and their esters” (Southern Research Institute, priority 1990, dated 1992).
pEC50: −log10 of the molar value.

Columns and labels:
[1] = tested on: tracheas obtained from vitamin A-deficient hamsters; details: value taken from Newton et al.; read-out: ED50, hamster trachea organ culture assay; cited from earlier work
[2] = tested on: mammary carcinogenesis; details: rats; Moon et al.; cited from earlier work
[3] = tested on: pre-neoplastic and malignant epithelial lesions; details: literature; cited from earlier work
[4] = tested on: certain neoplastic cells; details: literature; cited from earlier work
[5] = Roberts and Frolik, Roberts et al.; cited from earlier work

## CC1=C(/C=C/C(C)=C/C=C/C(C)=C\C(=O)Nc2ccc(O)cc2)C(C)(C)CCC1 [13-Cis-N-(4-hydroxyphenyl)-retinamide]
[1]
  pEC50: < 9.00
[2]
  Suppression of mammary carcinogenesis: suppress mammary carcinogenesis in rats

## CC1=C(/C=C/C(C)=C/C=C/C(C)=C\C(=O)O)C(C)(C)CCC1 [13-cis-retinoic acid]
[3]
  Prophylactic effect on development of pre-neoplastic and malignant epithelial lesions: exert a prophylactic effect
[4]
  Induction of differentiation of certain neoplastic cells to terminally differentiated cells: highly active inducers of differentiation

## CC1=C(/C=C/C(C)=C/C=C/C(C)=C/C(=O)NCCO)C(C)(C)CCC1 [All-trans-N-(2-hydroxyethyl)-retinamide]
[1]
  pEC50: 10.00

## CC1=C(/C=C/C(C)=C/C=C/C(C)=C/C(=O)Nc2ccc(O)cc2)C(C)(C)CCC1 [All-trans-N-(4-hydroxyphenyl)-retinamide]
[1]
  pEC50: 9.52
[2]
  Suppression of mammary carcinogenesis: suppress mammary carcinogenesis in rats

## CCNC(=O)/C=C(C)/C=C/C=C(C)/C=C/C1=C(C)CCCC1(C)C [All-trans-N-ethylretinamide]
[1]
  pEC50: 9.00

## CC1=C(/C=C/C(C)=C/C=C/C(C)=C/C(=O)O)C(C)(C)CCC1=O [all-trans-4-oxoretinoic acid]
[5]
  Metabolite identity: one of the metabolites of all-trans-retinoic acid

## CC1=C(/C=C/C(C)=C/C=C/C(C)=C/C(=O)O)C(C)(C)CCC1 [all-trans-retinoic acid]
[3]
  Prophylactic effect on development of pre-neoplastic and malignant epithelial lesions: exert a prophylactic effect
[4]
  Induction of differentiation of certain neoplastic cells to terminally differentiated cells: highly active inducers of differentiation
